Measured values published in patent US20240216281A1, “MANUFACTURING METHOD OF MEDICATION” (YUNG SHIN PHARM. IND. CO., LTD., priority 2022, published 2024).

Test: particle size distribution (PSD) of crystals within the medication
Type: physicochemical
Conditions: first embodiment: dry powder filling technology

Compound	10% of the crystals having a particle size (D10) of less than	50% of the crystals having a particle size (D50) of less than	90% of the crystals having a particle size (D90) of less than	90% of the crystals having a particle size (D90) of less than (unit not given)
OCc1ccc(-c2nn(Cc3ccccc3)c3ccccc23)o1 [YC-1 compound]	less than 0.648 μm	less than 14.061 μm	less than 215.136 μm	–
CC1(C)O[C@@H]2C[C@H]3[C@@H]4CCC5=CC(=O)C=C[C@]5(C)[C@@]4(F)[C@@H](O)C[C@]3(C)[C@]2(C(=O)CO)O1 [triamcinolone acetonide]	less than 4.444 μm	less than 11.189 μm	–	less than 30.504
